What all share (type): biochemical
One test concerns the target JAK1 (Homo sapiens, UniProt P23458). Briefly: JAK kinase activity, homogeneous time-resolved fluorescence (JAK1 reaction system). To be noted: ATP 2 μM, JAK1 protein 0.2 ng/μL; read-out: JAK 1 activity. The method, boiled down: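 Kinase activity read as the 665 nm/615 nm time-resolved fluorescence ratio (320 nm excitation) after EDTA-containing antibody and XL-615 addition. Reaction ran 1 h at pH 7.0 (Hepes, MgCl2, DTT) with 0.2 ng/μL JAK1 and ATP at 2 μM. IC50 derived by Hill-slope fit.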

Another test has as its target T1, JAK3 (Homo sapiens, UniProt P52333).
T1 sequence (P52333 1-1124): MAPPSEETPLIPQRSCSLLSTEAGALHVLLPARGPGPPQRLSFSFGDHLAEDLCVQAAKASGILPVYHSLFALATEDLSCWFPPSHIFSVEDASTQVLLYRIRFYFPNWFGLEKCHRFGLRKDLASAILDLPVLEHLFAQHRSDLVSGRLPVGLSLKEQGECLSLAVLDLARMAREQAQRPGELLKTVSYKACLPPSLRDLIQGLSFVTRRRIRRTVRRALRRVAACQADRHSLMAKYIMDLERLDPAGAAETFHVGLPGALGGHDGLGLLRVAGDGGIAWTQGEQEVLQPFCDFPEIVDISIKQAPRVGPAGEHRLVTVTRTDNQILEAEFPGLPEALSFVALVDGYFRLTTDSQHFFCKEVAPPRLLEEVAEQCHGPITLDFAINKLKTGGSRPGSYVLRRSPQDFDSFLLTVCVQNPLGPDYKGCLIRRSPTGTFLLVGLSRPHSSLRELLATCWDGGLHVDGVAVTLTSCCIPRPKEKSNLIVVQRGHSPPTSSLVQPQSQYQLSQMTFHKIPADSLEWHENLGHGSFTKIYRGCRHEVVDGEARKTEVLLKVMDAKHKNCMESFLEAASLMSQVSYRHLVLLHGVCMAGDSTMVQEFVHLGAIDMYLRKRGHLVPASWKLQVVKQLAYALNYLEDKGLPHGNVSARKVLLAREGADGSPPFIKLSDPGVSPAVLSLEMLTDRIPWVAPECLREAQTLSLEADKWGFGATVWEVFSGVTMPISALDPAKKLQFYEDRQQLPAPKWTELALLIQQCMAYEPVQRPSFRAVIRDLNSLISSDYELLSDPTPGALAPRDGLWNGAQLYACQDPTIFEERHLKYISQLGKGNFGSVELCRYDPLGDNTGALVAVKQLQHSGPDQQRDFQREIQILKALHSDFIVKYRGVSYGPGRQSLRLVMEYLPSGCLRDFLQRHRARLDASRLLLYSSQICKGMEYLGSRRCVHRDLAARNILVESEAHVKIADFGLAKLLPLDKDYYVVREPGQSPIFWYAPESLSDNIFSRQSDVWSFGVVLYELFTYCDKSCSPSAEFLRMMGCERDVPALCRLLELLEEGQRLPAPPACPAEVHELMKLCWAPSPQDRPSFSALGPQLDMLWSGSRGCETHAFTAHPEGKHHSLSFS
Nature of the test: JAK kinase activity, homogeneous time-resolved fluorescence (JAK3 reaction system). To be noted: ATP 2 μM, JAK3 protein 0.04 ng/μL; read-out: JAK 3 activity.

A further test deals with JAK2 (Homo sapiens, UniProt O60674). Nature of the test: JAK kinase activity, homogeneous time-resolved fluorescence (JAK2 reaction system). To be noted: ATP 2 μM, JAK2 protein 0.01 ng/μL. The method, boiled down:
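IC50 derived by Hill-equation fit of the 665/615 nm time-resolved fluorescence ratio after EDTA-containing detection mix with anti-phosphosubstrate antibody. Preceding 1 h reaction contained 2 μM ATP, 0.01 ng/μL JAK2, substrate, 50 mM Hepes pH 7.0, 5 mM MgCl2, 1 mM DTT.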

A further test addresses TYK2 (Homo sapiens, UniProt P29597). Nature of the test: JAK kinase activity, homogeneous time-resolved fluorescence (TYK2 reaction system). To be noted: ATP 2 μM, TYK2 protein 0.2 ng/μL; read-out: TYK 2 activity. Summed up:
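Activity read as the 665 nm/615 nm ratio after adding EDTA-containing detection mix with anti-phospho-substrate antibody and XL-615. Beforehand, 0.2 ng/μL TYK2, 2 μM ATP, substrate and compound reacted 1 h in pH 7.0 Hepes buffer with MgCl2 and DTT. IC50 fitted with Hill-slope equation.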

Sequence of TYK2 (P29597 whole entry): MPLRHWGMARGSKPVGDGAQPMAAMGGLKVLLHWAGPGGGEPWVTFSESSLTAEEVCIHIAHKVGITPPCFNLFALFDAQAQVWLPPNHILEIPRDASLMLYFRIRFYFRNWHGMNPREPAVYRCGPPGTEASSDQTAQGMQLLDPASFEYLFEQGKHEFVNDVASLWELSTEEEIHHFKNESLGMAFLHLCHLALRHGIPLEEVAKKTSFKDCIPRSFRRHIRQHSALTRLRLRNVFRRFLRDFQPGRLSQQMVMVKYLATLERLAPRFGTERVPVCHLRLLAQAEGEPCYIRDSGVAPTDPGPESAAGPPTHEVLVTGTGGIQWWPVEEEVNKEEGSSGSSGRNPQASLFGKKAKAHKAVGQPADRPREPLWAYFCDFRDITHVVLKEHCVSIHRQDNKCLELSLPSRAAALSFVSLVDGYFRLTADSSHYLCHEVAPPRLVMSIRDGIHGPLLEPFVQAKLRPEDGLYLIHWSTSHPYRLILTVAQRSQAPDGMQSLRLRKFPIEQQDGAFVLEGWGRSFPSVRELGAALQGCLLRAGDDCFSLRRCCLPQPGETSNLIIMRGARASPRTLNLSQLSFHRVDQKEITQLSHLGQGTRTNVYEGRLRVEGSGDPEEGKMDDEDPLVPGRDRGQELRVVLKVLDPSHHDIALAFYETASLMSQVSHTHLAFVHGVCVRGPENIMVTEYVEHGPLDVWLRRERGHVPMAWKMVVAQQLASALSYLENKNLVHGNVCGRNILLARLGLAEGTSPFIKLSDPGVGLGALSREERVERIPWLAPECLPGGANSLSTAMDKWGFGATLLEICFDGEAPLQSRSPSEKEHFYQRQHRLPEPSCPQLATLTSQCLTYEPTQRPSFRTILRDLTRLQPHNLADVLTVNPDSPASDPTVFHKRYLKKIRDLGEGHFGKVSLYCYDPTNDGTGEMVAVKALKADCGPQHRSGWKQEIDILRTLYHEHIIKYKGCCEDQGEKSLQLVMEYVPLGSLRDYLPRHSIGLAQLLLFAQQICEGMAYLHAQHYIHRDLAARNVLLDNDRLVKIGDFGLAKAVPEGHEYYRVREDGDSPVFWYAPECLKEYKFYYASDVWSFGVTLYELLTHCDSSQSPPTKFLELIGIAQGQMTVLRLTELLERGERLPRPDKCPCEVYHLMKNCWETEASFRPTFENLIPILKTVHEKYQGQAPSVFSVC
Sequence of JAK1 (P23458 whole entry): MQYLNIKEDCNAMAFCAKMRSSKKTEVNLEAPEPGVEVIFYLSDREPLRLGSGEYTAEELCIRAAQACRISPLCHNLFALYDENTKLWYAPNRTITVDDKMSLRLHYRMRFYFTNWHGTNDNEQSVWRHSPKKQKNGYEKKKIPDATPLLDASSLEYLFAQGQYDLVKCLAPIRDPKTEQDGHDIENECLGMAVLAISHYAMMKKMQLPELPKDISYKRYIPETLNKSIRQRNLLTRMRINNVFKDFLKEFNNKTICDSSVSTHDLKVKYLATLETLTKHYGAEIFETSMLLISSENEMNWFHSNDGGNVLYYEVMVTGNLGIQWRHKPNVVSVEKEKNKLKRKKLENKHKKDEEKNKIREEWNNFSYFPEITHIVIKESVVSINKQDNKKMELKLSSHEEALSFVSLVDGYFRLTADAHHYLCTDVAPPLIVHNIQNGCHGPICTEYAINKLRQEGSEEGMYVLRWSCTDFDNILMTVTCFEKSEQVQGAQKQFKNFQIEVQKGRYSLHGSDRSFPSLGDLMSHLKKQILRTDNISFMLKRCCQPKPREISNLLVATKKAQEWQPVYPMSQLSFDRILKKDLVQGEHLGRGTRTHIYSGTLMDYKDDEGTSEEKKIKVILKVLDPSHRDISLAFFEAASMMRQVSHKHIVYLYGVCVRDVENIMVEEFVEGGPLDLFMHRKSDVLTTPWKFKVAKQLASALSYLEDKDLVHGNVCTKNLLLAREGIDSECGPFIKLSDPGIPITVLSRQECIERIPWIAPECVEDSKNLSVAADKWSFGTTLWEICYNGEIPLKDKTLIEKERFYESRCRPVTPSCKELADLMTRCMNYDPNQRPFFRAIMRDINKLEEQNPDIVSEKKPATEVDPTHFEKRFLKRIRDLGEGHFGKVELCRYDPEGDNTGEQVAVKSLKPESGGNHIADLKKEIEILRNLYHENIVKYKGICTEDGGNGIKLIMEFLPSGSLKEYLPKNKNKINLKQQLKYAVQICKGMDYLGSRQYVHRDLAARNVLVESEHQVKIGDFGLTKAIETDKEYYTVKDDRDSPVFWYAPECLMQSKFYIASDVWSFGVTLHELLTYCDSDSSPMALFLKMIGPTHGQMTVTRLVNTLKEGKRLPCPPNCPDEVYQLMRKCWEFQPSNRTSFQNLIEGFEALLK
Sequence of JAK2 (O60674 whole entry): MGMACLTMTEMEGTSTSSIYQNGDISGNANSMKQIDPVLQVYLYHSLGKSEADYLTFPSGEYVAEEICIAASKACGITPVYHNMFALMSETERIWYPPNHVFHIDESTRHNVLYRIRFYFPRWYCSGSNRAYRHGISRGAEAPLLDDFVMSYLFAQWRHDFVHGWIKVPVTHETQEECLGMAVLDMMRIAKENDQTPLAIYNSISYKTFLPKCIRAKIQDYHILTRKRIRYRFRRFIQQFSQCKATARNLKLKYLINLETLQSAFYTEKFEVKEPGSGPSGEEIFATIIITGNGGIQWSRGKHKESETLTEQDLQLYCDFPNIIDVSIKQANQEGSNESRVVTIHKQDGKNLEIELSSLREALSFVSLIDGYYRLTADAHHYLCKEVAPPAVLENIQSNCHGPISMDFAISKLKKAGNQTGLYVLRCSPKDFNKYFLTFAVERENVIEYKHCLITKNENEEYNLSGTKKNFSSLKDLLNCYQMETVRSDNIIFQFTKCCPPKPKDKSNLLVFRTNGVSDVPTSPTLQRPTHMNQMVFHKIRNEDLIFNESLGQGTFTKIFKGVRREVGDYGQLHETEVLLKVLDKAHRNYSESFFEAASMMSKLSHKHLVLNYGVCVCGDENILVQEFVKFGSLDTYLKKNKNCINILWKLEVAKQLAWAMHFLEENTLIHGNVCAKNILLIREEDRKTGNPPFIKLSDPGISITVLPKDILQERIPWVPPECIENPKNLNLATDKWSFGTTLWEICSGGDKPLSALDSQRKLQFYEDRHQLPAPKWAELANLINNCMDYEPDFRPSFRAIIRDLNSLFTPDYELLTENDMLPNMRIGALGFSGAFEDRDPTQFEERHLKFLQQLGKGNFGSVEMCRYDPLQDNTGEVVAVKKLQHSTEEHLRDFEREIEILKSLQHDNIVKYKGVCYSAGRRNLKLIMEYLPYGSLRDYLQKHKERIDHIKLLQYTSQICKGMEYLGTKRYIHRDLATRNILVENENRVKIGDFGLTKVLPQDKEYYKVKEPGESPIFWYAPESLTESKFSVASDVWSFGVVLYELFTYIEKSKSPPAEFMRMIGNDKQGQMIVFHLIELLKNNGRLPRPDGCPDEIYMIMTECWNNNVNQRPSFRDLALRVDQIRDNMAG

For `CC1CCOCc2cc(ccc2OC2CC2)Nc2nccc(n2)-c2ccc(cc2N)C(=O)NC1` (stereo not shown) [Example 157, 1^2-amino-4^4-cyclopropoxy-9-meth-yl-6-oxa-3,11-diaza-2(4,2)-pyrimi-dina-1(1,4),4(1,3)-dibenzenacyclo-dodecaphan-12-one], the IC50 on JAK1 was 0.101 to 1 µM; on JAK3, less than 0.01 µM; at JAK2, 0.011 to 0.1 µM; on TYK2 it was 0.101 to 1 µM.

As for `CC1CCOCc2cc(ccc2OC2CC2)Nc2nccc(n2)-c2ccc(cc2[N+](=O)[O-])C(=O)NC1` (stereo not shown) [Example 158, 4^4-cyclopropoxy-9-methyl-1^2-nitro-6-oxa-3,11-diaza-2(4,2)-pyrimi-dina-1(1,4),4(1,3)-dibenzenacyclo-dodecaphan-12-one], the IC50 at JAK1 was 1 to 10 µM; at JAK3 it was 0.101 to 1 µM; against JAK2, greater than 10 µM; on TYK2, greater than 10 µM.

Regarding `Nc1cc2ccc1-c1ccnc(n1)Nc1ccc(OCc3cccc4c3COC4)c(c1)COCCCCNC2=O` [Example 160, 1^2-amino-4^4-((1,3-dihydroisobenzo-furan-4-yl)methoxy)-6-oxa-3,11-diaza-2(4,2)-pyrimidina-1(1,4),4(1,3)-dibenzenacyclododecaphan-12-one], the IC50 at JAK1 fell in the range of 1 to 10 µM; on JAK3, 0.011 to 0.1 µM; against JAK2, 0.101 to 1 µM; at TYK2, 1 to 10 µM.

Consider `Nc1cc2ccc1-c1ccnc(n1)Nc1ccc(Oc3cnc4[nH]ccc4c3)c(c1)COCCCCNC2=O` [Example 161, 4^4-((1H-pyrrolo[2,3-b]pyridin-5-yl)oxy)-1^2-amino-6-oxa-3,11-diaza-2(4,2)-pyrimidina-1(1,4),4(1,3)-di-benzenacyclododecaphan-12-one], for which the IC50 was 1 to 10 µM on JAK1, 1 to 10 µM on JAK3, 1 to 10 µM against JAK2 and greater than 10 µM on TYK2.

`CC1CCOCc2cc(ccc2OC2CCCOC2)Nc2nccc(n2)-c2ccc(cc2[N+](=O)[O-])C(=O)NC1` (stereo not shown) [Example 162, 9-methyl-1^2-nitro-4^4-((tetrahydro-2H-pyran-3-yl)oxy)-6-oxa-3,11-di-aza-2(4,2)-pyrimidina-1(1,4),4(1,3)-dibenzenacyclododecaphan-12-one]: the IC50 on JAK1 lay in the range of 1 to 10 µM; on JAK3, 0.101 to 1 µM; on JAK2 it was 0.101 to 1 µM; at TYK2, 1 to 10 µM.

On to `O=C1NCCCCOCc2cc(ccc2OCC2COC2)Nc2nccc(n2)-c2ccc1cc2[N+](=O)[O-]` [Example 163, 1^2-nitro-4^4-(oxetan-3-ylmethoxy)-6-oxa-3,11-diaza-2(4,2)-pyrimidina-1(1,4),4(1,3)-dibenzenacyclo-dodecaphan-12-one], for which the IC50 was 1 to 10 µM on JAK1, 1 to 10 µM at JAK3, 1 to 10 µM against JAK2 and greater than 10 µM at TYK2.

For the molecule `Nc1cc2ccc1-c1ccnc(n1)Nc1ccc(OCC3COC3)c(c1)COCCCCNC2=O` [Example 164, 1^2-amino-4^4-(oxetan-3-ylmethoxy)-6-oxa-3-diaza-2(4,2)-pyrimidina-1(1,4),4(1,3)-dibenzenacyclo-dodecaphan-12-one], the IC50 is 1 to 10 µM at JAK1, 0.011 to 0.1 µM on JAK3, 0.101 to 1 µM on JAK2 and 1 to 10 µM at TYK2.

As for `CC1CCOCc2cc(ccc2OC2CCCOC2)Nc2nccc(n2)-c2ccc(cc2N)C(=O)NC1` (stereo not shown) [Example 165, 1^2-amino-9-methyl-4^4-((tetrahydro-2H-pyran-3-yl)oxy)-6-oxa-3,11-di-aza-2(4,2)-pyrimidina-1(1,4),4(1,3)-dibenzenacyclododecaphan-12-one], the IC50 is 0.101 to 1 µM at JAK1, less than 0.01 µM at JAK3, 0.011 to 0.1 µM on JAK2 and 0.101 to 1 µM on TYK2.

For the molecule `CC1CCOCc2cc(ccc2OCC2CCOC2)Nc2nccc(n2)-c2ccc(cc2[N+](=O)[O-])C(=O)NC1` (stereo not shown) [Example 166, 9-methyl-1^2-nitro-4^4-((tetrahydro-furan-3-yl)methoxy)-6-oxa-3,11-di-aza-2(4,2)-pyrimidina-1(1,4),4(1,3)-dibenzenacyclododecaphan-12-one], the IC50 on JAK1 is 1 to 10 µM; on JAK3, 0.101 to 1 µM; against JAK2 it was 1 to 10 µM; at TYK2, greater than 10 µM.

`CC1CCOCc2cc(ccc2OCC2CCOC2)Nc2nccc(n2)-c2ccc(cc2N)C(=O)NC1` (stereo not shown) [Example 167, 1-amino-9-methyl-4^4-((tetahydro-furan-3-yl)methoxy)-6-oxa-3,11-diaza-2(4,2)-pyrimidina-1(1,4),4(1,3)-dibenzenacyclododecaphan-12-one]: the IC50 is 0.101 to 1 µM on JAK1, less than 0.01 µM on JAK3, 0.101 to 1 µM against JAK2 and 0.101 to 1 µM at TYK2.

For `CC1(C)CCNC(=O)c2ccc(c(N)c2)-c2ccnc(n2)Nc2ccc(OC3CCCOC3)c(c2)COC1` (stereo not shown) [Example 168, 1^2-amino-8,8-dimethyl-4^4-((tetra-hydro-2H-pyran-3-yl)oxy)-6-oxa-3,11-diaza-2(4,2)-pyrimidina-1(1,4),4(1,3)-dibenzenacyclododecaphan-12-one], the IC50 is greater than 10 µM on JAK1, 1 to 10 µM at JAK3, 1 to 10 µM against JAK2 and greater than 10 µM on TYK2.

With `CC1CCOCc2cc(ccc2OCC2CCCC2)Nc2nccc(n2)-c2ccc(cc2N)C(=O)NC1` (stereo not shown) [Example 169, 1^2-amino-4^4-(cyclopentylmethoxy)-9-methyl-6-oxa-3,11-diaza-2(4,2)-pyrimidina-1(1,4),4(1,3)-dibenzena-cyclododecaphan-12-one], the IC50 lay within 1 to 10 µM at JAK1, 0.011 to 0.1 µM at JAK3, 0.101 to 1 µM against JAK2 and 1 to 10 µM on TYK2.

As to `CC1(C)CCOCc2cc(ccc2OC2CCCOC2)Nc2nccc(n2)-c2ccc(cc2N)C(=O)NC1` (stereo not shown) [Example 170, 1^2-amino-9,9-dimethyl-4^4-((tetra-hydroxy-2H-pyran-3-yl)oxy)-6-oxa-3,11-diaza-2(4,2)-pyrimidina-1(1,4),4(1,3)-dibenzenacyclododecaphan-12-one], the IC50 is 1 to 10 µM on JAK1, 0.101 to 1 µM at JAK3, 1 to 10 µM against JAK2 and 1 to 10 µM at TYK2.

For `COc1cccc(F)c1COc1ccc2cc1COCCCCNC(=O)c1ccc(c([N+](=O)[O-])c1)-c1ccnc(n1)N2` [Example 171, 4^4-((2-fluoro-6-methoxybenzyl)oxy)-1^2-nitro-6-oxa-3,11-diaza-2(4,2)-pyrimidina-1(1,4),4(1,3)-di-benzenacyclododecaphan-12-one], the IC50 at JAK1 is 1 to 10 µM; at JAK3 it was 1 to 10 µM; against JAK2, 1 to 10 µM; at TYK2 it was greater than 10 µM.

Consider `COc1cccc(F)c1COc1ccc2cc1COCCCCNC(=O)c1ccc(c(N)c1)-c1ccnc(n1)N2` [Example 172, 1^2-amino-4^4-((2-fluoro-6-methoxy-benzyl)oxy)-6-oxa-3,11-diaza-2(4,2)-pyrimidina-1(1,4),4(1,3)-di-benzenacyclododecaphan-12-one], for which the IC50 is 1 to 10 µM at JAK1, 0.011 to 0.1 µM on JAK3, 0.101 to 1 µM on JAK2 and 1 to 10 µM on TYK2.

On to `COc1cc(F)ccc1COc1ccc2cc1COCCCCNC(=O)c1ccc(c(N)c1)-c1ccnc(n1)N2` [Example 173, 1^2-amino-4^4-((4-fluoro-2-methoxy-benzyl)oxy)-6-oxa-3,11-diaza-2(4,2)-pyrimidina-1(1,4),4(1,3)-di-benzenacyclododecaphan-12-one], for which the IC50 at JAK1 was 1 to 10 µM; on JAK3 it was 0.011 to 0.1 µM; against JAK2, 0.101 to 1 µM; at TYK2, 1 to 10 µM.

For the origin of these results see patent US20230203059A1, “MACROCYCLIC JAK INHIBITOR AND USES THEREOF” (Biopolar Hongye (Guangdong) Pharmaceutical Co. Ltd., priority 2020, published 2023).
